The molecules below were run on HCV replicon (assay: HCV replicon assay (NPT ELISA in HCV replicon-containing cells)). Conditions: Hepatitis C virus, 72 h; HCV replicon-containing Huh-7 cells; three days incubation; read-out: EC50 for inhibition of replication of the HCV replicon.
Assay type: cell-based
Protocol: The compounds claimed herein were tested for the ability to inhibit viral replication of the Hepatitis C replicon in cultured cells in which the HCV replicon construct has been incorporated. The HCV replicon system was described by Bartenschlager, et. al (Science, 285, pp. 110-113 (1999)). The replicon system is predictive of in vivo anti-HCV activity; compounds that are active in humans uniformly evidence activity in the replicon assay.
In this assay HCV replicon containing cells are treated with different concentrations of the test compound to ascertain the ability of the test compound to suppress replication of the HCV replicon. As a positive control, HCV replicon-containing cells are treated with different concentrations of interferon alpha, a known inhibitor of HCV replication. The replicon assay system includes Neomycin Phosphotransferase (NPT) as a component of the replicon itself in order to detect the transcription of replicon gene products in the host cell. Cells in which the HCV replicon is actively replicating have high levels of NPT; the level of NPT is proportional to HCV replication. […] The NPT level of each sample is measured using a captured ELISA.
A protocol for testing compounds for the ability to inhibit viral replication of the Hepatitis C replicon cultured cells in which the replicon construct has been incorporated, follows.
The HCV replicon contains, 5-′3′, the HCV-IRES, the neomycin phosphotransferase (neo) gene, the IRES of encephalomyocarditis virus, which directs translation of HCV sequences NS3 to NS5B, and the 3′-NTR. The sequence of the HCV replicon has been deposited in GenBank (Accession no. AJ242652).
The replicon is transfected into Huh-7 cells using standard methods such as electroporation.
The equipment and materials include, but are not limited to, Huh-7 HCV replicon-containing cells, maintenance media (DMEM (Dulbecco's modified Eagle media) supplemented with 10% FBS, L-glutamine, non-essential amino acids, penicillin (100 units/ml), streptomycin (100 micrograms/ml), and 500 micrograms/ml of Geneticin G418), screening media (DMEM supplemented with 10% FBS, L-glutamine, and non-essential amino acid, penicillin (100 units/ml) and streptomycin (100 micrograms/ml)), 96 well tissue culture plates (flat bottom), 96 well plates (U bottom for drug dilution), Interferon alpha for positive control, fixation reagent (such as methanol: acetone), primary antibody (rabbit anti-NPTII), secondary antibody: Eu-N1 l, and enhancement solution.
HCV replicon-containing cells are rinsed with once PBS once; 2 mls of trypsin is added. Cells are incubated at 37° C. in a 5% CO2 incubator for 3-5 minutes. 10 mls of complete medium is added to stop the reaction. Cells are blown gently, put into a 15 ml tube, and spun at 1200 rpm for four minutes. The trypsin/medium solution is removed and 5 mls of medium (500 ml DMEM (high glucose)) from BRL catalog #12430-054; 50 mls 10% FBS, […] (50 mg/ml, BRL 10131-035), 5 ml MEM non-essential amino acid (100×BRL #11140-050) and 5 ml pen-strep (BRL #15140-148) is added. The cells and media are mixed carefully
Cells are plated with screening medium (500 ml DMEM (BRL #21063-029), 50 ml FBS (BRL #10082-147) and 5 ml MEM non-essential amino acid (BRL #11140-050) at 6000-7500 cells/100 μl/well of 96 well plate (6-7.5×10^5 cells/10 ml/plate). Plates are placed into 37° C. 5% CO2 incubator overnight.
The following morning, drugs (test compounds or interferon alpha) are diluted in 96 well U bottom plates with media or DMSO/media, depending on the final concentration chosen for screening. Generally for 6 concentrations of each test compounds ranging from 10 micromolar to 0.03 micromolar are applied. 100 μl of the test compound dilution is placed in wells of the 96 well plate containing the HCV replicon cells. Media without drug is added to some wells as a negative controls. DMSO is known to affect cell growth. […]

Question: For `O=C(NC(=S)Nc1cccc(OCc2ccccc2)c1)C1Cc2ccccc2O1` (stereo not shown) [Compound 39, 1-(3-Benzyloxy-phenyl)-3-(2,3-dihydro-benzofuran-2-carbonyl)-thiourea], which EC50 is on record?
Answer: The EC50 was less than 30 µM.

Question: With `O=C(NC(=S)Nc1cccc(OCc2ccccc2)c1)C1COc2ccccc2O1` (stereo not shown) [Compound 40, 1-(3-Benzyloxy-phenyl)-3-(2,3-dihydro-benzo[1,4]dioxine-2-carbonyl)-thiourea] as the molecule, how does the EC50 read?
Answer: Its EC50 is less than 30 µM.

Question: `O=C(NC(=S)Nc1cccc(OCc2ccccc2)c1)C1CCc2ccccc2O1` (stereo not shown) [Compound 41, 1-(3-Benzyloxy-phenyl)-3-(chroman-2-carbonyl)-thiourea] was tested. Which EC50 did it give?
Answer: Its EC50 is less than 30 µM.

Question: How did the EC50 turn out when `O=C(NC(=S)Nc1cccc(OCc2ccccc2)c1)c1ccc2ccccc2n1` [Compound 42, 1-(3-Benzyloxy-phenyl)-3-(quinoline-2-carbonyl)-thiourea] was run?
Answer: Its EC50 is less than 30 µM.

Reference: patent US7094807B2, “Substituted aryl thioureas and related compounds; inhibitors of viral replication” (Achillion Pharmaceuticals, Inc., priority 2002, dated 2006)
